# Source: patent US20110071198A1 (priority 2008, published 2011)
# Like-named read-outs stand apart in the source and are kept apart here.
# Columns and labels:
# [1] = literature; cited from earlier work
# cPLA2 = format: cell-based; details: pretreatment of cells
# Description: Agonist-stimulated activation of cPLA2 in the presence of control siRNA, β-arrestin1 siRNA, or control siRNA plus either pertussis toxin or PD98059 (PD). […] (FIG. 6D) Activation or phosphorylation of cPLA2 in siRNA-treated cells. **P=0.0085 versus respective 10-minute value; ***P=0.0047 versus respective 0-minute value. Data are mean±SEM of 3 independent experiments.
# Immunoblotting and immunoprecipitation. […] For immunoprecipitation, cells were treated with serum-free media with and without nicotinic acid. Cells were washed once with PBS at 4° C., harvested by gentle scraping, pelleted, and resuspended in glycerol lysis buffer including protease and phosphatase inhibitors. […] Immunoprecipitation reactions were incubated at 4° C. for 3 hours, washed 3 times with glycerol lysis buffer, and resuspended in SDS running buffer. Samples were subjected to SDS-PAGE analysis and Western blotting with cPLA2 antibody (diluted 1:1,000; Cell Signaling Technology), phosphorylated cPLA2 antibody (diluted 1:1,000; Cell Signaling Technology), M2 antibody (diluted 1:2,000; Sigma-Aldrich), and β-arrestin antibody (diluted 1:1,000; BD Biosciences).
# [2] = nicotinic acid therapy; cited from earlier work
# [3] = system: differentiated THP-1 macrophages; details: 200 μM for 10 minutes; data not shown
# peritoneal macrophages = details: 200 μM, 10 minutes
# Description: FIGS. 8A-8E. […] Data are mean±SEM for change in perfusion as a function of time. […] (FIG. 8D) Maximum response to PGD2, plotted as mean±SEM (n=15−25 per condition). […] Thioglycollate-elicited peritoneal macrophages were loaded with H3-arachidonic acid (H3-AA) for 24 hours, and then rinsed to remove arachidonic acid not incorporated into cell membrane lipids. […] Animal use and protocols. All animal studies were reviewed and approved by the Duke University Internal Animal Care and Use Committee. […] Age- and weight-matched male mice over 12 weeks of age were used in all experiments. […] The animals were euthanized 30 minutes later. Serum was collected and stored at −80° C. […] After 10 minutes, the mice were placed under an LDPI laser Doppler (PeriScan PIM II; Perimed). The right ear was everted to expose the anterior/ventral surface. The laser Doppler was focused on the central portion of the ventral ear. Data were collected using the repeated data collection mode with a 5-mm×5-mm image size, a 10-second delay, and high-resolution scan. […] Readings were continually recorded for 30 minutes. As a control, each animal was subsequently treated with 4 mg/kg PGD2 dissolved in PBS.
# [4] = i.p. 10, 50 or 100 mg/kg; wild-type C57BL/6, β-arrestin1-deficient and β-arrestin2-deficient mice
# Description: FIG. 7. […] Animal use and protocols. All animal studies were reviewed and approved by the Duke University Internal Animal Care and Use Committee. […] Age- and weight-matched male mice over 12 weeks of age were used in all experiments. […] The animals were euthanized 30 minutes later. Serum was collected and stored at −80° C. […] After 10 minutes, the mice were placed under an LDPI laser Doppler (PeriScan PIM II; Perimed). The right ear was everted to expose the anterior/ventral surface. The laser Doppler was focused on the central portion of the ventral ear. Data were collected using the repeated data collection mode with a 5-mm×5-mm image size, a 10-second delay, and high-resolution scan. […] Readings were continually recorded for 30 minutes. As a control, each animal was subsequently treated with 4 mg/kg PGD2 dissolved in PBS.
# [5] = Mouse cutaneous flushing assay (laser Doppler perfusion of ventral ear); format: in vivo, mice; details: i.p. 100 mg/kg
# Description: FIGS. 8A-8E. […] Animal use and protocols. […] The animals were euthanized 30 minutes later. Serum was collected and stored at −80° C. […] Readings were continually recorded for 30 minutes.
# [6] = design: species or system mice; details: mouse, in vivo
# Description: FIG. 10. […]. Perfusion of the ventral ear in age and weight matched wild-type C57B1/6 mice was measured with laser doppler. […] The first dose was 25 mg/kg, the second dose was 50 mg/kg and the third dose was 100 mg/kg. Wild-type (rechallenge) mice received all three doses of nicotinic acid and wild-type (control) mice received the first dose of nicotinic acid followed by two subsequent doses with vehicle alone. Plotted values represent the mean change in perfusion as a function of time from 8 animals.
# Langerhans cells = details: 10 μM for 10 minutes
# Description: Data are mean±SEM of 3 independent experiments.
# The plates were transferred on ice, and cells were washed twice with ice-cold PBS and then scraped in PBS containing complete protease inhibitor cocktail (Roche Applied Sciences). Cells were lysed by brief sonication and then centrifuged at 3,000 g for 5 minutes to remove unbroken cells and nuclear fractions. Subsequently, the supernatant was centrifuged at 21,000 g for 30 minutes to separate the membrane fraction (in the pellet) and cytosolic fraction (in the supernatant). The membrane pellet was resuspended in PBS, proteins in the membrane and the cytosolic fractions were measured by Bradford assay, and β-arrestins were detected by Western blot analysis.
# GPR109A [7] = target: T1, GPR109A (Homo sapiens, UniProt Q8TDS4); experiment: ICUE cAMP assay in HEK-293 cells expressing FLAG-GPR109A and ICUE2 biosensor; format: cell-based
# T1 construct: expressed in transfected cells; plus Zeocin with ICUE2
# Description: ICUE cAMP assay. […] Experiments were performed on a NOVOstar plate reader (BMG Labtech).
# GPR109A [8] = target: T1, GPR109A; experiment: Phosphorylated ERK immunoblotting in HEK-293 cells; format: cell-based; details: GPR109A-expressing cells
# Description: Total ERK1/2 was detected with anti-MAPK1/2 (diluted 1:3,000; Upstate Biotechnology). […] Anti-rabbit and anti-mouse secondary antibodies for Western blots were obtained from Amersham Biosciences. For immunoprecipitation, cells were treated with serum-free media with and without nicotinic acid. Cells were washed once with PBS at 4° C., harvested by gentle scraping, pelleted, and resuspended in glycerol lysis buffer including protease and phosphatase inhibitors. […] Immunoprecipitation reactions were incubated at 4° C. for 3 hours, washed 3 times with glycerol lysis buffer, and resuspended in SDS running buffer. Samples were subjected to SDS-PAGE analysis and Western blotting with cPLA2 antibody (diluted 1:1,000; Cell Signaling Technology), phosphorylated cPLA2 antibody (diluted 1:1,000; Cell Signaling Technology), M2 antibody (diluted 1:2,000; Sigma-Aldrich), and β-arrestin antibody (diluted 1:1,000; BD Biosciences).
# T1 sequence (Q8TDS4 whole entry, species assumed): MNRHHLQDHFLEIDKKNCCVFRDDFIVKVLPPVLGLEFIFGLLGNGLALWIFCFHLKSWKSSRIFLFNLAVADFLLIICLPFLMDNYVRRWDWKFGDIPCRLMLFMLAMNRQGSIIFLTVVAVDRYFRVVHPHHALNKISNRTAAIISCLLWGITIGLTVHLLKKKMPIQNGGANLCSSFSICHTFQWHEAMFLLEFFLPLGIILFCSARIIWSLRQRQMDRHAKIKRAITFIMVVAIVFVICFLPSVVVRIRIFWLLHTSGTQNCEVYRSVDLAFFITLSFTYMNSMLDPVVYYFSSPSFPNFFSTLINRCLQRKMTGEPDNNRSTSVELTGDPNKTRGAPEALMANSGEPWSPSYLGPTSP
compound,measurement,setting,value
C1Cc2[nH]nc(-c3nn[nH]n3)c2C1 [MK-0354],cutaneous flushing,[1],do not induce cutaneous flushing
same,serum FFAs,[1],decrease serum FFAs
COc1cccc(-c2cc(=O)c3ccccc3o2)c1N [PD98059],basal level of phosphorylated cPLA2 after pretreatment,cPLA2,substantially increased
"O=C(O)c1cccnc1 [nicotinic acid, Nicotinic acid]",occurrence of cutaneous vasodilation or flushing side effect,[2],~80 % of patients
same,β-arrestin1 translocation in differentiated THP-1 macrophages,[3],led to β-arrestin1 translocation
same,release of radiolabeled eicosanoids in β-arrestin1-deficient cells,peritoneal macrophages; versus wild type,significantly reduced
same,release of radiolabeled eicosanoids,peritoneal macrophages; wild-type and β-arrestin2-deficient macrophages,increased
same,serum FFAs,[4],significant and essentially identical decreases in FFAs
same,nicotinic acid-stimulated increase in perfusion in β-arrestin1-deficient mice,[5]; versus wild type,dramatically decreased
same,perfusion of the ventral ear,[5]; wild-type and β-arrestin2-deficient mice,dramatic increase in perfusion
same,tachyphylaxis to cutaneous vasodilation/flushing,[6],rapid tachyphylaxis
same,recruitment of β-arrestin1 to the membrane of Langerhans cells,Langerhans cells,robust recruitment
pertussis toxin,basal level of phosphorylated cPLA2 after pretreatment,cPLA2,substantially increased
same,"MK-0354-induced cAMP decrease, sensitivity to pertussis toxin",GPR109A [7]; agonist MK-0354,sensitive
same,"nicotinic acid-induced cAMP decrease, sensitivity to pertussis toxin",GPR109A [7]; agonist nicotinic acid,sensitive
same,effect on nicotinic acid-stimulated ERK phosphorylation,GPR109A [8],all but eliminated
